We go through 23 compounds from patent US10689367B2, “Triazole pyridyl compounds as agonists of the APJ receptor” (AMGEN INC., priority 2016, dated 2020).

Sequence of human APJ receptor (P35414 whole entry): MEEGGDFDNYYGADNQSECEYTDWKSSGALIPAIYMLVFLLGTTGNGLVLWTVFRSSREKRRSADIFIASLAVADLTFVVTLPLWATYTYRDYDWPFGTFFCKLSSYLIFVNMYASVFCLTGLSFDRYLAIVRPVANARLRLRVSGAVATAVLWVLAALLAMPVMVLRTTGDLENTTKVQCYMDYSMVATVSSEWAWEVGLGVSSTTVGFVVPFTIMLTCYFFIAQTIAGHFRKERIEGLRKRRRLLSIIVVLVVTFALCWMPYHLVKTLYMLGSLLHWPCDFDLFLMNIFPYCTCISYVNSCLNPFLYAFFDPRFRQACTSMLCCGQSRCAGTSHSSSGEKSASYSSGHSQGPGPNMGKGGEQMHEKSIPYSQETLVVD

For the test, the target named is human APJ receptor (Homo sapiens (Human), UniProt P35414). Put plainly: [35S]GTPγS binding assay on membranes from CHO cells stably expressing human APJ receptor. The conditions noted are these: membranes of CHO cells stably expressing human APJ receptor, read-out: Activity hAPJ SPA EC50 IP. It counts as biochemical. The procedure:
The human APJ receptor was cloned by polymerase chain reaction and the gene encoding the receptor was subcloned in pFLAG-CMV™-3 expression vector (Sigma, Saint Louis, Mo. USA) in-house at Amgen. A GTPγS binding assay was performed on membranes prepared from CHO cells stably expressing human APJ receptor. The optimum experimental conditions for the concentrations of GDP, MgCl2, and NaCl in the assay buffer were initially determined. […] Incubation was at RT for 90 min and the microplate was read using a ViewLux™ ultra HTS Microplate Imager (PerkinElmer, Inc.). All the results presented are means of several independent experiments and analyzed by non-linear regression methods using the commercially available program Prism (GraphPad, San Diego, Calif.) providing the EC50 values detailed in Table 27.
Background: GTPγS is a poorly hydrolysed GTP analogue; its binding reports G protein activation.
`COc1cccc(-c2nnc(NS(=O)(=O)[C@@H](C)[C@@H](OC(C)C)c3ncc(C)cn3)n2[C@@H](C)c2ccno2)n1` (single isomer, unassigned) [Example 216.0, (1S,2S)-N-(5-(6-methoxy-2-pyridinyl)-4-((1S)-1-(1,2-oxazol-5-yl)ethyl)-4H-1,2,4-triazol-3-yl)-1-(5-methyl-2-pyrimidinyl)-1-(2-propanyloxy)-2-propanesulfonamide or (1S,2S)-N-(5-(6-methoxy-2-pyridinyl)-4-((1R)-1-(1,2-oxazol-5-yl)ethyl)-4H-1,2,4-triazol-3-yl)-1-(5-methyl-2-pyrimidinyl)-1-(2-propanyloxy)-2-propanesulfonamide]: the EC50 turned out to be 2.2 nM.

Regarding `COc1cccc(-c2nnc(NS(=O)(=O)[C@@H](C)[C@H](OC)c3cnc(C)cn3)n2Cc2cc(C)no2)n1` [Example 191.0, (1R,2S)-1-methoxy-N-(5-(6-methoxypyridin-2-yl)-4-((3-methylisoxazol-5-yl)methyl)-4H-1,2,4-triazol-3-yl)-1-(5-methylpyrazin-2-yl)propane-2-sulfonamide], the EC50 was determined as 390 nM.

Regarding `COc1cccc(-c2nnc(NS(=O)(=O)[C@@H](C)[C@@H](OC(C)C)c3ncc(Cl)cn3)n2C2CC2)n1` [Example 70.0], the EC50 was 0.6 nM.

On to `COc1cccc(-c2nnc(NS(=O)(=O)[C@@H](C)[C@H](C)c3ncc(Cl)cn3)n2[C@@H](C)c2ncnn2C)n1` (single isomer, unassigned) [Example 251.0, (2S,3R)-3-(5-chloro-2-pyrimidinyl)-N-(5-(6-methoxy-2-pyridinyl)-4-((1R)-1-(1-methyl-1H-1,2,4-triazol-5-yl)ethyl)-4H-1,2,4-triazol-3-yl)-2-butanesulfonamide or (2S,3R)-3-(5-chloro-2-pyrimidinyl)-N-(5-(6-methoxy-2-pyridinyl)-4-((1S)-1-(1-methyl-1H-1,2,4-triazol-5-yl)ethyl)-4H-1,2,4-triazol-3-yl)-2-butanesulfonamide], for which the concentration giving a half-maximal response (EC50) was found to be 1.7 nM.

On to `COCC(COC)n1c(NS(=O)(=O)[C@@H](C)[C@H](C)c2ncc(OC)cn2)nnc1-c1cccc(OC)n1` [Example 99.0], for which the EC50 was 4.2 nM.

As for `COc1cccc(-c2nnc(NS(=O)(=O)[C@@H](C)[C@H](OC)c3ncc(Cl)cn3)n2[C@@H]2[C@@H](OC)CCC[C@H]2OC)n1` [Example 185.0, (1R,2S)-1-(5-chloro-2-pyrimidinyl)-N-(4-((1r,2R,6 S)-2,6-dimethoxycyclohexyl)-5-(6-methoxy-2-pyridinyl)-4H-1,2,4-triazol-3-yl)-1-methoxy-2-propanesulfonamide], the half-maximal effective concentration (EC50) was determined as 7.2 nM.

For `COc1cccc(-c2nnc(NS(=O)(=O)[C@@H](C)[C@H](OC)c3ncc(Cl)cn3)n2C(C)C)n1` [Example 11.0, (1R,2S)-1-(5-chloro-2-pyrimidinyl)-1-methoxy-N-(5-(6-methoxy-2-pyridinyl)-4-(2-propanyl)-4H-1,2,4-triazol-3-yl)-2-propanesulfonamide], the EC50 is 6.4 nM.

`COc1cccc(-c2nnc(NS(=O)(=O)[C@@H](C)[C@H](OC)c3ncc(Cl)cn3)n2CCc2ccc(F)cc2)n1` [Example 74.0]: the 50% effective concentration (EC50) was found to be 31 nM.

Regarding `COc1cccc(-c2nnc(NS(=O)(=O)[C@@H](C)[C@H](OC)c3ncc(Cl)cn3)n2[C@@H](C)c2ccon2)n1` (single isomer, unassigned) [Example 265.0, (1R,2S)-1-(5-chloro-2-pyrimidinyl)-1-methoxy-N-(5-(6-methoxy-2-pyridinyl)-4-((1R)-1-(1,2-oxazol-3-yl)ethyl)-4H-1,2,4-triazol-3-yl)-2-propanesulfonamide or (1R,2S)-1-(5-chloro-2-pyrimidinyl)-1-methoxy-N-(5-(6-methoxy-2-pyridinyl)-4-((1S)-1-(1,2-oxazol-3-yl)ethyl)-4H-1,2,4-triazol-3-yl)-2-propanesulfonamide], the EC50 is 0.92 nM.

With `COc1cccc(-c2nnc(NS(=O)(=O)[C@@H](C)[C@H](OC)c3ncc(Cl)cn3)n2C2CCCCC2)n1` [Example 184.0, (1R,2S)-1-(5-chloro-2-pyrimidinyl)-N-(4-cyclohexyl-5-(6-methoxy-2-pyridinyl)-4H-1,2,4-triazol-3-yl)-1-methoxy-2-propanesulfonamide], the EC50 was 7.3 nM.

As for `COc1cccc(-c2nnc(NS(=O)(=O)[C@@H](C)[C@H](C)c3ncc(Cl)cn3)n2Cc2ccno2)n1` [Example 207.0, (2S,3R)-3-(5-chloro-2-pyrimidinyl)-N-(5-(6-methoxy-2-pyridinyl)-4-(1,2-oxazol-5-ylmethyl)-4H-1,2,4-triazol-3-yl)-2-butanesulfonamide], the EC50 worked out at 30 nM.

As for `COc1cc(Cn2c(NS(=O)(=O)[C@@H](C)[C@H](OC)c3cnc(C)cn3)nnc2-c2cccc(OC)n2)on1` [Example 199.0, (1R,2S)-1-methoxy-N-(4-((3-methoxy-1,2-oxazol-5-yl)methyl)-5-(6-methoxy-2-pyridinyl)-4H-1,2,4-triazol-3-yl)-1-(5-methyl-2-pyrazinyl)-2-propanesulfonamide], the EC50 was 220 nM.

As to `COc1cccc(-c2nnc(NS(=O)(=O)[C@@H](C)[C@H](OC)c3ncc(Cl)cn3)n2[C@H]2C[C@@H](OC)C2)n1` [Example 180.0, (1R,2S)-1-(5-chloro-2-pyrimidinyl)-1-methoxy-N-(4-(cis-3-methoxycyclobutyl)-5-(6-methoxy-2-pyridinyl)-4H-1,2,4-triazol-3-yl)-2-propanesulfonamide], the EC50 was 74 nM.

As for `COc1cccc(-c2nnc(NS(=O)(=O)[C@@H](C)[C@H](OC)c3ncc(Cl)cn3)n2[C@@H]2CCC23CCC3)n1` (single isomer, unassigned) [Example 92.0], the EC50 was found to be 1.2 nM.

Take `CC[C@H]([C@@H]1CCCCO1)n1c(NS(=O)(=O)[C@@H](C)[C@H](OC)c2ncc(C)cn2)nnc1-c1cccc(OC)n1` (single isomer, unassigned) [Example 332.0]: the EC50 was 0.12 nM.

For `COCC1(n2c(NS(=O)(=O)[C@@H](C)[C@H](OC)c3ncc(Cl)cn3)nnc2-c2cccc(OC)n2)CC1` [Example 4.0], the EC50 came out at 0.16 nM.

`CC[C@H](c1c(C)noc1C)n1c(NS(=O)(=O)[C@@H](C)[C@H](OC)c2cnc(C)cn2)nnc1-c1cccc(OC)n1` (mixture of isomers) [Example 208.0, (1R,2S)-N-(4-((1R)-1-(3,5-dimethyl-1,2-oxazol-4-yl)propyl)-5-(6-methoxy-2-pyridinyl)-4H-1,2,4-triazol-3-yl)-1-methoxy-1-(5-methyl-2-pyrazinyl)-2-propanesulfonamide and (1R,2S)-N-(4-((1S)-1-(3,5-dimethyl-1,2-oxazol-4-yl)propyl)-5-(6-methoxy-2-pyridinyl)-4H-1,2,4-triazol-3-yl)-1-methoxy-1-(5-methyl-2-pyrazinyl)-2-propanesulfonamide]: the EC50 came out at 42 nM.

For the compound `COc1cccc(-c2nnc(NS(=O)(=O)[C@@H](C)[C@H](C)c3ncc(C)cn3)n2Cc2ccon2)n1` [Example 291.0, (2S,3R)-N-(4-(isoxazol-3-ylmethyl)-5-(6-methoxypyridin-2-yl)-4H-1,2,4-triazol-3-yl)-3-(5-methylpyrimidin-2-yl)butane-2-sulfonamide], the EC50 is 35 nM.

As to `COc1cccc(-c2nnc(NS(=O)(=O)[C@@H](C)[C@H](C)c3ncc(Cl)cn3)n2[C@@H](C)c2ccon2)n1` (racemic) [Example 268.0, (2S,3R)-3-(5-chloropyrimidin-2-yl)-N-(4-((R)-1-(isoxazol-3-yl)ethyl)-5-(6-methoxypyridin-2-yl)-4H-1,2,4-triazol-3-yl)butane-2-sulfonamide or (2S,3R)-3-(5-chloropyrimidin-2-yl)-N-(4-((S)-1-(isoxazol-3-yl)ethyl)-5-(6-methoxypyridin-2-yl)-4H-1,2,4-triazol-3-yl)butane-2-sulfonamide], the half-maximal effective concentration (EC50) worked out at 2.7 nM.

For the compound `COc1cccc(-c2nnc(NS(=O)(=O)[C@@H](C)[C@H](OC)c3ncc(Cl)cn3)n2[C@@H](C)c2ncn(C)n2)n1` (single isomer, unassigned) [Example 236.0, (1R,2S)-1-(5-chloro-2-pyrimidinyl)-1-methoxy-N-(5-(6-methoxy-2-pyridinyl)-4-((1R)-1-(1-methyl-1H-1,2,4-triazol-3-yl)ethyl)-4H-1,2,4-triazol-3-yl)-2-propanesulfonamide or (1R,2S)-1-(5-chloro-2-pyrimidinyl)-1-methoxy-N-(5-(6-methoxy-2-pyridinyl)-4-((1S)-1-(1-methyl-1H-1,2,4-triazol-3-yl)ethyl)-4H-1,2,4-triazol-3-yl)-2-propanesulfonamide], the EC50 was found to be 7.2 nM.

Consider `[2H]C1([2H])C(n2c(NS(=O)(=O)[C@@H](C)[C@H](OC)c3ncc(Cl)cn3)nnc2-c2cccc(OC)n2)C1([2H])[2H]` [Example 148.0, (1R,2S)-1-(5-Chloropyrimidin-2-yl)-N-(4-(cyclopropyl-2,2,3,3-d4)-5-(6-methoxypyridin-2-yl)-4H-1,2,4-triazol-3-yl)-1-methoxypropane-2-sulfonamide], for which the EC50 worked out at 6.8 nM.

Turning to `COc1cccc(-c2nnc(NS(=O)(=O)[C@@H](C)[C@H](OC)c3ncc(Cl)cn3)n2C2CCC2)n1` [Example 182.0, (1R,2S)-1-(5-chloro-2-pyrimidinyl)-N-(4-cyclobutyl-5-(6-methoxy-2-pyridinyl)-4H-1,2,4-triazol-3-yl)-1-methoxy-2-propanesulfonamide], the EC50 worked out at 25 nM.

As to `COc1cnc([C@@H](C)[C@H](C)S(=O)(=O)Nc2nnc(-c3cccc(OC)n3)n2C2CC2)cn1` [Example 118.0], the EC50 worked out at 31 nM.

For orientation: EC50 means the concentration giving half of the maximal effect.
